Results: ChEMBL document CHEMBL3390836, “Mannich- and LedererManasse-based analogues of the natural product S-(+)-curcuphenol as cancer proliferation and migration inhibitors” (Medchemcomm, 2012)

What was measured:
Assay type in all cases: functional
[1] = test system: NCI-H460; assay: Cytotoxicity against human NCI-H460 cells assessed as cell growth at 10^-4 M after 48 hrs by SRB assay relative to control; conditions: NCI-H460, 48 h, read-out: Activity
[2] = test system: IGROV-1; assay: Cytotoxicity against human IGROV1 cells after 48 hrs by SRB assay; conditions: IGROV-1, 48 h
[3] = Cytotoxicity against human OVCAR3 cells after 48 hrs by SRB assay; conditions: OVCAR-3, 48 h
[4] = Cytotoxicity against human SKOV3 cells after 48 hrs by SRB assay; conditions: SK-OV-3, 48 h
[5] = test system: SN12C; assay: Cytotoxicity against human SN12C cells after 48 hrs by SRB assay
[6] = test system: U-251; assay: Cytotoxicity against human U251 cells assessed as cell growth at 10^-4 M after 48 hrs by SRB assay relative to control; conditions: U-251, 48 h, read-out: Activity
[7] = test system: MCF7; assay: Cytotoxicity against human MCF7 cells after 48 hrs by SRB assay; conditions: MCF7, 48 h; for CC50: read-out: LC50 (the source's name)
[8] = test system: NCI-H226; assay: Cytotoxicity against human NCI-H226 cells assessed as cell growth at 10^-8 M after 48 hrs by SRB assay relative to control; conditions: NCI-H226, 48 h, read-out: Activity
[9] = test system: NCI-H322M; assay: Cytotoxicity against human NCI-H322M cells assessed as cell growth at 10^-8 M after 48 hrs by SRB assay relative to control; conditions: read-out: Activity
[10] = test system: SF-268; assay: Cytotoxicity against human SF268 cells assessed as cell growth at 10^-8 M after 48 hrs by SRB assay relative to control; conditions: SF-268, 48 h, read-out: Activity
[11] = test system: SK-MEL-28; assay: Cytotoxicity against human SK-MEL-28 cells assessed as cell growth at 10^-4 M after 48 hrs by SRB assay relative to control; conditions: SK-MEL-28, 48 h, read-out: Activity
[12] = Cytotoxicity against human OVCAR8 cells assessed as cell growth at 10^-4 M after 48 hrs by SRB assay relative to control; conditions: OVCAR-8, 48 h, read-out: Activity
[13] = test system: 786-0; assay: Cytotoxicity against human 786-0 cells assessed as cell growth at 10^-4 M after 48 hrs by SRB assay relative to control; conditions: 786-0, 48 h, read-out: Activity
[14] = test system: TK-10; assay: Cytotoxicity against human TK10 cells assessed as cell growth at 10^-4 M after 48 hrs by SRB assay relative to control; conditions: TK-10, 48 h, read-out: Activity
[15] = test system: T47D; assay: Cytotoxicity against human T47D cells assessed as cell growth at 10^-4 M after 48 hrs by SRB assay relative to control; conditions: read-out: Activity
[16] = Cytotoxicity against human SKOV3 cells assessed as cell growth at 10^-8 M after 48 hrs by SRB assay relative to control; conditions: SK-OV-3, 48 h, read-out: Activity
[17] = test system: A498; assay: Cytotoxicity against human A498 cells assessed as cell growth at 10^-8 M after 48 hrs by SRB assay relative to control; conditions: A498, 48 h, read-out: Activity
[18] = test system: T47D; assay: Cytotoxicity against human T47D cells assessed as cell growth at 10^-8 M after 48 hrs by SRB assay relative to control; conditions: read-out: Activity
[19] = test system: MOLT-4; assay: Cytotoxicity against human MOLT4 cells assessed as cell growth at 10^-7 M after 48 hrs by SRB assay relative to control; conditions: MOLT-4, 48 h, read-out: Activity
[20] = test system: NCI-H226; assay: Cytotoxicity against human NCI-H226 cells assessed as cell growth at 10^-7 M after 48 hrs by SRB assay relative to control; conditions: NCI-H226, 48 h, read-out: Activity
[21] = test system: KM12; assay: Cytotoxicity against human KM12 cells assessed as cell growth at 10^-7 M after 48 hrs by SRB assay relative to control; conditions: KM12, 48 h, read-out: Activity
[22] = test system: SF-539; assay: Cytotoxicity against human SF539 cells assessed as cell growth at 10^-7 M after 48 hrs by SRB assay relative to control; conditions: SF-539, 48 h, read-out: Activity
[23] = test system: LOX IMVI; assay: Cytotoxicity against human LOXIMVI cells assessed as cell growth at 10^-7 M after 48 hrs by SRB assay relative to control; conditions: read-out: Activity
[24] = test system: SW-620; assay: Cytotoxicity against human SW620 cells after 48 hrs by SRB assay; conditions: SW-620, 48 h; for CC50: read-out: LC50 (the source's name)
[25] = Cytotoxicity against human UACC62 cells assessed as cell growth at 10^-7 M after 48 hrs by SRB assay relative to control; conditions: UACC-62, 48 h, read-out: Activity
[26] = test system: A498; assay: Cytotoxicity against human A498 cells assessed as cell growth at 10^-7 M after 48 hrs by SRB assay relative to control; conditions: A498, 48 h, read-out: Activity
[27] = test system: SN12C; assay: Cytotoxicity against human SN12C cells assessed as cell growth at 10^-7 M after 48 hrs by SRB assay relative to control; conditions: read-out: Activity
[28] = Cytotoxicity against human UO31 cells assessed as cell growth at 10^-7 M after 48 hrs by SRB assay relative to control; conditions: UO-31, 48 h, read-out: Activity
[29] = test system: A549; assay: Cytotoxicity against human A549 cells assessed as cell growth at 10^-6 M after 48 hrs by SRB assay relative to control; conditions: A549, 48 h, read-out: Activity
[30] = test system: NCI-H322M; assay: Cytotoxicity against human NCI-H322M cells assessed as cell growth at 10^-6 M after 48 hrs by SRB assay relative to control; conditions: read-out: Activity
[31] = test system: HCC 2998; assay: Cytotoxicity against human HCC2998 cells assessed as cell growth at 10^-6 M after 48 hrs by SRB assay relative to control; conditions: HCC 2998, 48 h, read-out: Activity
[32] = Cytotoxicity against human HCT15 cells assessed as cell growth at 10^-6 M after 48 hrs by SRB assay relative to control; conditions: HCT-15, 48 h, read-out: Activity
[33] = Cytotoxicity against human OVCAR4 cells assessed as cell growth at 10^-6 M after 48 hrs by SRB assay relative to control; conditions: OVCAR-4, 48 h, read-out: Activity
[34] = test system: ACHN; assay: Cytotoxicity against human ACHN cells assessed as cell growth at 10^-6 M after 48 hrs by SRB assay relative to control; conditions: read-out: Activity
[35] = Cytotoxicity against human UO31 cells assessed as cell growth at 10^-6 M after 48 hrs by SRB assay relative to control; conditions: UO-31, 48 h, read-out: Activity
[36] = test system: MCF7; assay: Cytotoxicity against human MCF7 cells assessed as cell growth at 10^-6 M after 48 hrs by SRB assay relative to control; conditions: MCF7, 48 h, read-out: Activity
[37] = test system: T47D; assay: Cytotoxicity against human T47D cells assessed as cell growth at 10^-6 M after 48 hrs by SRB assay relative to control; conditions: read-out: Activity

COc1ccc(CCN2COc3c([C@@H](C)CCC=C(C)C)ccc(C)c3C2)cc1OC
growth at 100 µM [1]: -92%
GI50 [2]: 1.08 µM
LC50 (concentration killing 50% of cells) [2]: 12.7 µM
TGI [2]: 3.52 µM
GI50 [3]: 3.55 µM
LC50 [3]: 40.1 µM
TGI [3]: 14.1 µM
GI50 [4]: 11.8 µM
LC50 (concentration killing 50% of cells) [4]: 81.8 µM
TGI [4]: 31.1 µM
GI50 [5]: 3.27 µM
LC50 [5]: 36.8 µM
TGI [5]: 13.5 µM
growth at 100 µM [6]: -100%
GI50 [7]: 3.29 µM
TGI [7]: 11 µM
CC50 [7]: 36.3 µM
growth at 0.01 µM [8]: 90%
growth at 0.01 µM [9]: 87%
growth at 0.01 µM [10]: 85%
growth at 100 µM [11]: -95%
growth at 100 µM [12]: -54%
growth at 100 µM [13]: -100%
growth at 100 µM [14]: -88%
growth at 100 µM [15]: -91%
growth at 0.01 µM [16]: 97%
growth at 0.01 µM [17]: 67%
growth at 0.01 µM [18]: 88%
growth at 0.1 µM [19]: 89%
growth at 0.1 µM [20]: 88%
growth at 0.1 µM [21]: 96%
growth at 0.1 µM [22]: 88%
growth at 0.1 µM [23]: 84%
GI50 [24]: 1.91 µM
TGI [24]: 4.08 µM
CC50 [24]: 8.72 µM
growth at 0.1 µM [25]: 90%
growth at 0.1 µM [26]: 97%
growth at 0.1 µM [27]: 89%
growth at 0.1 µM [28]: 92%
growth at 1 µM [29]: 95%
growth at 1 µM [30]: 92%
growth at 1 µM [31]: 88%
growth at 1 µM [32]: 90%
growth at 1 µM [33]: 85%
growth at 1 µM [34]: 85%
growth at 1 µM [35]: 76%
growth at 1 µM [36]: 99%
growth at 1 µM [37]: 88%

CC(C)=CCC[C@H](C)c1ccc(C)c2c1OCN(CC1CCNCC1)C2
growth at 100 µM [1]: -94%
GI50 [2]: 16.6 µM
LC50 (concentration killing 50% of cells) [2]: 62.5 µM
TGI [2]: 32.2 µM
GI50 [3]: 15.6 µM
LC50 [3]: 62.1 µM
TGI [3]: 31.1 µM
GI50 [4]: 16.7 µM
LC50 (concentration killing 50% of cells) [4]: 57.8 µM
TGI [4]: 31.1 µM
GI50 [5]: 14.2 µM
LC50 [5]: 58.7 µM
TGI [5]: 28.9 µM
growth at 100 µM [6]: -87%
GI50 [7]: 6.15 µM
TGI [7]: 18.7 µM
CC50 [7]: 45.2 µM
growth at 0.01 µM [8]: 86%
growth at 0.01 µM [9]: 98%
growth at 0.01 µM [10]: 102%
growth at 100 µM [11]: -98%
growth at 100 µM [12]: -85%
growth at 100 µM [13]: -87%
growth at 100 µM [14]: -87%
growth at 100 µM [15]: -70%
growth at 0.01 µM [16]: 101%
growth at 0.01 µM [17]: 78%
growth at 0.01 µM [18]: 95%
growth at 0.1 µM [19]: 104%
growth at 0.1 µM [20]: 98%
growth at 0.1 µM [21]: 99%
growth at 0.1 µM [22]: 94%
growth at 0.1 µM [23]: 92%
GI50 [24]: 9.87 µM
TGI [24]: 23.1 µM
CC50 [24]: 53.5 µM
growth at 0.1 µM [25]: 96%
growth at 0.1 µM [26]: 82%
growth at 0.1 µM [27]: 102%
growth at 0.1 µM [28]: 94%
growth at 1 µM [29]: 96%
growth at 1 µM [30]: 108%
growth at 1 µM [31]: 104%
growth at 1 µM [32]: 95%
growth at 1 µM [33]: 101%
growth at 1 µM [34]: 106%
growth at 1 µM [35]: 91%
growth at 1 µM [36]: 104%
growth at 1 µM [37]: 91%

CC(C)=CCC[C@H](C)c1ccc(C)c(CNCC2CCNCC2)c1O
growth at 100 µM [1]: -68%
GI50 [2]: 9.4 µM
LC50 (concentration killing 50% of cells) [2]: > 25 µM
TGI [2]: > 25 µM
GI50 [3]: 8.44 µM
LC50 [3]: > 25 µM
TGI [3]: > 25 µM
GI50 [4]: 6.82 µM
LC50 (concentration killing 50% of cells) [4]: > 25 µM
TGI [4]: > 25 µM
GI50 [5]: 12.9 µM
LC50 [5]: > 25 µM
TGI [5]: > 25 µM
growth at 100 µM [6]: -81%
GI50 [7]: 4.5 µM
TGI [7]: 8.34 µM
CC50 [7]: 15.5 µM
growth at 0.01 µM [8]: 98%
growth at 0.01 µM [9]: 99%
growth at 0.01 µM [10]: 97%
growth at 100 µM [11]: -91%
growth at 100 µM [12]: -60%
growth at 100 µM [13]: -47%
growth at 100 µM [14]: -15%
growth at 100 µM [15]: -73%
growth at 0.01 µM [16]: 99%
growth at 0.01 µM [17]: 80%
growth at 0.01 µM [18]: 101%
growth at 0.1 µM [19]: 96%
growth at 0.1 µM [20]: 79%
growth at 0.1 µM [21]: 97%
growth at 0.1 µM [22]: 91%
growth at 0.1 µM [23]: 95%
GI50 [24]: 4.11 µM
TGI [24]: 8.14 µM
CC50 [24]: 16.1 µM
growth at 0.1 µM [25]: 90%
growth at 0.1 µM [26]: 74%
growth at 0.1 µM [27]: 91%
growth at 0.1 µM [28]: 86%
growth at 1 µM [29]: 98%
growth at 1 µM [30]: 99%
growth at 1 µM [31]: 99%
growth at 1 µM [32]: 98%
growth at 1 µM [33]: 101%
growth at 1 µM [34]: 92%
growth at 1 µM [35]: 84%
growth at 1 µM [36]: 93%
growth at 1 µM [37]: 84%
